Experimental data reported in patent US6589549B2, “Bioactive agent delivering system comprised of microparticles within a biodegradable to improve release profiles” (Macromed, Incorporated, priority 2000, dated 2003).

Settings: in the presence of the block copolymer

Structure (SMILES): CC(=O)O[C@H]1C(=O)[C@@]2(C)[C@H]([C@H](OC(=O)c3ccccc3)[C@]3(O)C[C@H](OC(=O)[C@H](O)[C@@H](NC(=O)c4ccccc4)c4ccccc4)C(C)=C1C3(C)C)[C@]1(OC(C)=O)CO[C@@H]1C[C@@H]2O [paclitaxel]
- chemical stability in the aqueous polymer composition relative to aqueous solutions with organic co-solvents: substantially stabilized
